Measured values as given in ChEMBL document CHEMBL6127084, “Exploration of the tunability of BRD4 degradation by DCAF16 trans-labelling covalent glues” (Eur J Med Chem, 2024).
Active and inactive are the calls of the source. No cut-off for these calls is given here.

Experiments:
[1] = molecular target: T1, DDB1- and CUL4-associated factor 16/Bromodomain-containing protein 4 (Homo sapiens, UniProt O60885+Q9NXF7); assay: Molecular glue degradation (MGD) activity at DCAF16/BRD4 in human K562 cells assessed as maximum degradation incubated for 16 hrs by fluorescent stability reporter assay relative to control; assay type: cell-based
T1 sequence (Q9NXF7 whole entry, looked up, other chains not shown): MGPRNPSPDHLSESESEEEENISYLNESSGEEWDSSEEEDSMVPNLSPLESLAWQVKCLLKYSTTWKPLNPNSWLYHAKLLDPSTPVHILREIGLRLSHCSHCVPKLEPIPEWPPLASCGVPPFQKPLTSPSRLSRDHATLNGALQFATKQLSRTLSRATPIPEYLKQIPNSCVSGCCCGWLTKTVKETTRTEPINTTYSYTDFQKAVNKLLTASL

[2] = molecular target: T1, DDB1- and CUL4-associated factor 16/Bromodomain-containing protein 4; assay: Molecular glue degradation (MGD) activity at DCAF16/BRD4 in human K562 cells incubated for 16 hrs; assay type: cell-based
[3] = Stability of compound in PBS assessed as half lives incubated for 1 hrs by LC-MS/MS analysis; assay type: physicochemical
[4] = Glutathione reactivity in PBS buffer assessed as half lives incubated for 1 hrs by LC-MS/MS analysis; assay type: physicochemical
K562 = assay: Induction of eGF-tagged BRD4 BD2 degradation in DCAF16 knock out human K562 cells at 1 uM incubated for 16 hrs by Western blot analysis; assay type: cell-based
Jurkat = assay: Molecular glue degradation (MGD) activity at BRD4 in DCAF16 knock out human Jurkat cells assessed as BRD4 degradation at 0.01 to 10 uM incubated for 6 hrs by Nano-Glo HiBiT assay; assay type: cell-based; conditions: dose 0.01-10 µM
[5] = molecular target: T1, DDB1- and CUL4-associated factor 16/Bromodomain-containing protein 4; assay: Molecular glue degradation (MGD) activity at DCAF16/BRD4 BD2 in human K562 cells assessed as maximum degradation at 10 uM incubated for 16 hrs by fluorescent stability reporter assay relative to control; assay type: cell-based
[6] = molecular target: T1, DDB1- and CUL4-associated factor 16/Bromodomain-containing protein 4; assay: Potency index, ratio of GNE011 MIC to test compound MIC for molecular glue degradation (MGD) activity at DCAF16/BRD4 BD2 in human K562 cells assessed as maximum degradation at 10 uM incubated for 16 hrs by fluorescent stability reporter assay; assay type: cell-based
[7] = molecular target: T1, DDB1- and CUL4-associated factor 16/Bromodomain-containing protein 4; assay: Molecular glue degradation (MGD) activity at DCAF16/BRD4 in wild type human Jurkat cells assessed as BRD4 degradation at < 100 nM incubated for 6 hrs by Nano-Glo HiBiT assay; assay type: cell-based
[8] = molecular target: T1, DDB1- and CUL4-associated factor 16/Bromodomain-containing protein 4; assay: Binding affinity to DCAF16/eGF-tagged BRD4 BD2 (unknown origin) assessed as ternary complex formation by measuring maximum TR-FRET ratio at 100 uM incubated for 1 hrs by TR-FRET assay; assay type: protein assay
[9] = molecular target: T1, DDB1- and CUL4-associated factor 16/Bromodomain-containing protein 4; assay: Binding affinity to DCAF16/eGF-tagged BRD4 BD2 (unknown origin) assessed as ternary complex formation by measuring maximum TR-FRET ratio at 100 uM incubated for 24 hrs by TR-FRET assay; assay type: protein assay
[10] = molecular target: T1, DDB1- and CUL4-associated factor 16/Bromodomain-containing protein 4; assay: Molecular glue degradation (MGD) activity at DCAF16/BRD4 in wild type human Jurkat cells assessed as BRD4 degradation at 10 nM incubated for 6 hrs by Nano-Glo HiBiT assay; assay type: cell-based
[11] = molecular target: T1, DDB1- and CUL4-associated factor 16/Bromodomain-containing protein 4; assay: Molecular glue degradation (MGD) activity at DCAF16/ BRD4 BD2 in human K562 cells transfected with […] incubated for 16 hrs by fluorescent stability reporter assay; assay type: cell-based; conditions: dose 0.001-10 µM
[12] = molecular target: T1, DDB1- and CUL4-associated factor 16/Bromodomain-containing protein 4; assay: Binding affinity to His-tagged BRD4 BD2 (unknown origin) assessed as ternary complex formation at 0.001 to 100 uM incubated for 1 to 24 hrs by TR-FRET assay; assay type: protein assay; conditions: dose 0.001-100 µM, time 1-24 hrs
[13] = molecular target: T1, DDB1- and CUL4-associated factor 16/Bromodomain-containing protein 4; assay: Molecular glue degradation (MGD) activity at DCAF16/BRD4 in human K562 cells assessed as covalent-engagement of DCAF16 by measuring BRD4 degradation at 1 uM preincubated for 4 hrs followed by compound addition measured after 24 hrs (no washout experiment) by Western blot analysis; assay type: cell-based; conditions: time 28.0 hrs

Row | SMILES | Emax [1] [%] | DC50 [2] [nM] | half-life [3] [h] | half-life [4] [h] | Activity (K562) | Activity (Jurkat) | Emax [5] [%] | fold change (FC) [6] | Activity [7] [%] | Ratio [8] | Ratio [9] | Activity [10] [%] | Activity [11] | Activity [12] | Activity [13]
1 | Cc1sc2c(c1C)C(c1ccc(C#CC(N)=O)cc1)=N[C@@H](CC(=O)OC(C)(C)C)c1nncn1-2 | 69 | 51 | > 12.5 | 6.33 | inactive | inactive | – | – | – | – | – | – | – | – | –
2 | C=CS(=O)(=O)Nc1ccc(C2=N[C@@H](CC(=O)OC(C)(C)C)c3nncn3-c3sc(C)c(C)c32)cc1 | – | 1 | > 12.5 | > 12.5 | inactive | inactive | 95 | 1000 | – | – | – | – | – | – | –
3 | Cc1sc2c(c1C)C(c1ccc(/C=C/C=O)cc1)=N[C@@H](CC(=O)OC(C)(C)C)c1nncn1-2 | 75 | 64 | > 12.5 | 6.92 | inactive | inactive | – | – | > 90 | – | – | – | – | – | –
4 | Cc1sc2c(c1C)C(c1ccc(NC(=O)CCl)cc1)=N[C@@H](CC(=O)OC(C)(C)C)c1nncn1-2 | – | 8 | > 12.5 | 8.85 | – | inactive | 56 | – | > 90 | – | – | – | – | – | –
5 | Cc1sc2c(c1C)C(c1ccc(C#CC=O)cc1)=N[C@@H](CC(=O)OC(C)(C)C)c1nncn1-2 | 69 | 703 | > 12.5 | 8.83 | inactive | inactive | – | – | > 90 | 2.12 | 0.28 | 73 | – | – | –
6 | Cc1sc2c(c1C)C(c1ccc(/C=C/C(N)=O)cc1)=N[C@@H](CC(=O)OC(C)(C)C)c1nncn1-2 | – | – | > 12.5 | > 12.5 | – | – | – | – | – | – | – | – | inactive | inactive | Active
7 | Cc1sc2c(c1C)C(c1ccc(C#CCO)cc1)=N[C@@H](CC(=O)OC(C)(C)C)c1nncn1-2 | 10 | > 10000 | – | – | – | – | – | – | – | – | – | – | – | inactive | –
